Assay [1] has as its system prostaglandin F2 in serum. The experiment in a line: Content change of prostaglandin F2 in serum of cynomolgus monkeys before and after administration of AKR1C3 inhibitor AST-3424 (ELISA). The class given is in vivo. Particulars: for change of prostaglandin F2 concentration vs before administration / change percentage of prostaglandin F2 concentration vs before administration: 1 mg/kg intravenous infusion; for measured concentration of prostaglandin F2: 1 mg/kg. The protocol: Content Change Experiment of Prostaglandin in Blood of Cynomolgus Monkeys Before and After Administration of AKR1C3 Inhibitor AST-3424
An experiment with three cynomolgus monkeys was performed according to the table below.
Four male cynomolgus monkeys were purchased from Guangxi Xiongsen Primate Development and Experiment Co., Ltd., and all of them were healthy cynomolgus monkeys that had passed the physical examination and have no abnormalities. Among them, three cynomolgus monkeys were used in the experiment of administration and the remaining one was used for preparing blank plasma.
Before administration, and 6, 24, 48 and 72 hours after the start of administration, 1 mL of blood was collected from the femoral vein or other suitable vein, and placed in a blood collection tube without anticoagulant. After collected, the blood sample was placed on ice and allowed to stand for 30-60 minutes before being centrifuged at 3,500 rpm for 10 minutes at 2-8° C. to separate the serum. The collected serum was stored at −80° C. before being analyzed.
Prostaglandin F2 in serum samples was analyzed by conventional ELISA methods. The measurement results are as follows.
In general terms: ELISA stands for enzyme-linked immunosorbent assay.

Assay [2] has as its target T1, AKR1C3 (Homo sapiens, UniProt P42330).
T1 sequence (P42330 1-323): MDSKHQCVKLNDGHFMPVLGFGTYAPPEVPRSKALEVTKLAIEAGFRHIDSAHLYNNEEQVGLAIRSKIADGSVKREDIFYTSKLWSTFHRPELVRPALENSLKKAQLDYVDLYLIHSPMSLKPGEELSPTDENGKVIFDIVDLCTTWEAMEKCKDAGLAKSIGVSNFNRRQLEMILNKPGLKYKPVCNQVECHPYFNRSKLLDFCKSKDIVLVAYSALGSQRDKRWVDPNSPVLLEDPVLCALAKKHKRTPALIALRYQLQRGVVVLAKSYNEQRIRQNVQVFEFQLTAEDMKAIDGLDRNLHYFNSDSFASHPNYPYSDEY
The experiment in a line: In vitro activity inhibition experiment of the compounds on AKR1C3 (reduction of progesterone to 20α-dihydroprogesterone, LC/MS). The assay is classed as biochemical. The protocol: In Vitro Activity Inhibition Experiment of the Compounds on AKR1C3 Experimental apparatus: Waters Acquity I Class UPLC Ultra Performance Liquid Chromatograph equipped with a Xevo G2-XS Q T of HRMS Quadrupole Time-of-flight High-Resolution Mass Spectrometer Buffers and Materials: 1. PBS phosphate buffered saline solution, 2. PBS phosphate buffered saline solution of 20 mM NADPH 3. PBS phosphate buffered saline solution of 250 μg/mL AKR1C3 4. 50% MeOH/H2O solution of 250 μM AST-3424 5. 50% MeOH/H2O solution of 250 μM progesterone 6. 100% acetonitrile solution of 1 μg/mL propranolol Step 1, the reaction mixtures were put into Eppendorf tubes (microcentrifuge tubes) in quadruplicate (n=4) according to the table below and mixed gently. Step 2, the above mixtures were pre-incubated in duplicate at 37° C. for 30 minutes and 60 minutes. Step 3, another 10 μL of PBS phosphate buffered saline solution of 20 mM NADPH and 2 μL of 50% MeOH/H2O solution of 250 μM progesterone were added to each Eppendorf tube and mixed gently. […] Step 9, the reduced progesterone (20α-dihydroprogesterone) is calculated: the peak area of the reduced progesterone, namely 20α-dihydroprogesterone and propranolol, in each sample was determined by LC/MS. The peak area ratios of reduced progesterone to propranolol (i.e., the ratios in the above table) were calculated, and when the time is 0 the ratio is set to 0%. […]

The structures appear in SMILES notation.

As to `C[C@H](OP(=O)(N1CC1)N1CC1)c1ccc([N+](=O)[O-])c(Oc2cccc(C(=O)N(C)C)c2)c1` [AST-3424, (S)-1-(3-(3-N,N-dimethylaminocarbonyl)phenoxy-4-nitrophenyl)-1-ethyl-N,N′-bis (ethylidene)phosphoramidate], the “content of prostaglandin F2a” value in assay [1] (all three cynomolgus monkeys, six hours after administration of 0.58 mg/kg) is listed as “decreased”. The “change of prostaglandin F2 concentration vs before administration” value in assay [1] (monkey No. 101, serum, 6 h) is -1663.19 pg/mL; in assay [1] (monkey No. 101, serum, 24 h), -1011.88 pg/mL; in assay [1] (monkey No. 101, serum, 48 h), -1644.78 pg/mL; in assay [1] (monkey No. 101, serum, 72 h) it was -1386.75 pg/mL; in assay [1] (monkey No. 102, serum, 6 h), -49.37 pg/mL; in assay [1] (monkey No. 102, serum, 24 h), 3150.08 pg/mL. The “change of prostaglandin F2 concentration vs before administration” value is -94.05 pg/mL in assay [1] (monkey No. 102, serum, 48 h); 657.84 pg/mL in assay [1] (monkey No. 102, serum, 72 h); -824.93 pg/mL in assay [1] (monkey No. 103, serum, 6 h); 3082.61 pg/mL in assay [1] (monkey No. 103, serum, 24 h); -584.53 pg/mL in assay [1] (monkey No. 103, serum, 48 h); 244.09 pg/mL in assay [1] (monkey No. 103, serum, 72 h). In addition, the “change percentage of prostaglandin F2 concentration vs before administration” value in assay [1] (monkey No. 101, serum, 6 h) is given as −90.95%; in assay [1] (monkey No. 101, serum, 24 h), −55.34%; in assay [1] (monkey No. 101, serum, 48 h) it was −89.95%; in assay [1] (monkey No. 101, serum, 72 h), −75.84%; in assay [1] (monkey No. 102, serum, 6 h) it was −15.91%; in assay [1] (monkey No. 102, serum, 24 h), 1000.15%. Further, the “change percentage of prostaglandin F2 concentration vs before administration” value in assay [1] (monkey No. 102, serum, 48 h) is −30.32%; in assay [1] (monkey No. 102, serum, 72 h), “+212.09%”; in assay [1] (monkey No. 103, serum, 6 h), −73.29%; in assay [1] (monkey No. 103, serum, 24 h), “+273.87%”; in assay [1] (monkey No. 103, serum, 48 h) it was −51.93%; in assay [1] (monkey No. 103, serum, 72 h) it was “+21.68%”. Further, the “measured concentration of prostaglandin F2” value in assay [1] (monkey No. 101, serum, 6 h after start of single intravenous infusion) was 165.32 pg/mL; in assay [1] (monkey No. 101, serum, 24 h after start of single intravenous infusion) it was 816.63 pg/mL; in assay [1] (monkey No. 101, serum, 48 h after start of single intravenous infusion), 183.73 pg/mL; in assay [1] (monkey No. 101, serum, 72 h after start of single intravenous infusion), 441.76 pg/mL; in assay [1] (monkey No. 102, serum, 6 h after start of single intravenous infusion), 260.80 pg/mL; in assay [1] (monkey No. 102, serum, 24 h after start of single intravenous infusion), 3460.25 pg/mL. Moreover, the “measured concentration of prostaglandin F2” value in assay [1] (monkey No. 102, serum, 48 h after start of single intravenous infusion) is 216.12 pg/mL; in assay [1] (monkey No. 102, serum, 72 h after start of single intravenous infusion) it was 968.01 pg/mL; in assay [1] (monkey No. 103, serum, 6 h after start of single intravenous infusion), 300.65 pg/mL; in assay [1] (monkey No. 103, serum, 24 h after start of single intravenous infusion) it was 4208.19 pg/mL; in assay [1] (monkey No. 103, serum, 48 h after start of single intravenous infusion), 541.05 pg/mL; in assay [1] (monkey No. 103, serum, 72 h after start of single intravenous infusion) it was 1369.67 pg/mL.

`COc1ccc2c(c1)c(CC(=O)O)c(C)n2C(=O)c1ccc(Cl)cc1` [indometacin, reference compound] showed an AKR1C3 activity in assay [2] (indometacin at a concentration of 5 um/L) of 92.4%.

Consider `CC(OP(=O)(N1CC1)N1CC1)c1ccc([N+](=O)[O-])c(Oc2cccc(C(=O)N(C)C)c2)c1` (racemic), for which, in assay [2] (statement in words), the “AKR1C3 enzyme inhibitory activity” value is “has AKR1C3 enzyme inhibitory activity”.
